The record followed here is article PMC11582173, “Synthesis, cytotoxicity, anti-inflammatory, anti-metastatic and anti-oxidant activities of novel chalcones incorporating 2-phenoxy-N-arylacetamide and thiophene moieties: induction of apoptosis in MCF7 and HEP2 cells” (Naunyn-Schmiedeberg's Archives of Pharmacology, 2024).

For this assay, the system named is Malondialdehyde (MDA). Kind of assay: ELISA, MDA concentration. The format is cell-based, human. The protocol:
The concentrations of matrix metalloproteinase-2 (MMP2), matrix metalloproteinase-9 (MMP9), Bcl2, BAX, P53, Malondialdehyde (MDA), Glutathione (GSH), caspase 8, caspase 9 and IL-6 were measured quantitatively in 5c treated MCF7 and HEP2 cells using ELISA (Enzyme-Linked Immunosorbent Assay) (Table 4). Gelatinases are a collective word for MMP-2 and MMP-9, where MMP-2 is gelatinase-A and MMP-9 is gelatinase-B. Solid tumor invasion, metastasis, and angiogenesis have long been linked to gelatinases (Das et al. [2021]). […] Bcl2 is a crucial protein that targets apoptosis inhibition. It is regarded as a predictive biomarker or therapeutic target in the diagnosis of cancer due to its broad expression in a variety of cancers (Porter et al. [2009]). […] The pro-apoptotic protein BAX permeabilizes the mitochondrial outer membrane by changing from a cytosolic monomer to a hazardous oligomer triggering the apoptosis process (Fulda and Debatin [2006]). […] P53 transcription factor performs an essential tumor suppressor role by coordinating a wide range of physiological responses, including DNA repair, cell cycle arrest, cellular senescence, cell death, cell differentiation, and metabolism (Liebl and Hofmann [2021]). It was activated in MCF7 and HEP2-treated cells with values (4.28 and 3.109 ng/mL), respectively, compared to their controls (3.44 and 2.06 ng/mL). […]
For orientation: An ELISA detects its analyte on a solid surface through an enzyme-linked reagent.

“And” between values parts separate entries of the source, which are not always exact repeats. Equal values may be shown once.

Take `COc1ccc(NC(=O)COc2ccc(C=CC(=O)c3cccs3)cc2)cc1` [Compound 5c, N-(4-Methoxyphenyl)-2-(4-(3-oxo-3-(thiophen-2-yl)prop-1-en-1-yl)phenoxy)acetamide]: the MDA concentration is 11.988 nM and 11.988 ± 0.178 nM (5c treated HEP2 cells, untreated 17.44±0.309); 8.79 nM and 8.79 ± 0.309 nM (5c treated MCF7 cells, untreated 15.79±0.178).
